The source made the active and inactive calls. No cut-off for these calls is given here.

The species named for one experiment is Homo sapiens. As to the kind of experiment: Sweetness enhancing activity in trained human panelists assessed as rating of perceived sweetness intensity of depicted sucrose solutions at 10 ppm co-treated with 5% sucrose relative to original level. The format is functional.
Turning to `Cl.Cl.Nc1c(C(=O)O)cncc1-c1ccc(CNC(=O)[C@@H](N)C2CCCCC2)o1`, the “fold change (FC)” value was determined as 1.77.
Consider `CC(C)(CC(=O)Nc1cncc(C(=O)O)c1N)NC(=O)[C@@H](N)C1CCCCC1.Cl.Cl`, for which the “fold change (FC)” value turned out to be 2.05.
Turning to `Cc1nc2cccc(OCC(C)(C)C(=O)NC(C)C)c2c(N)c1C(=O)O`, the “fold change (FC)” value is on record as 1.97.
Still for that read-out and setting: the same measure for `Cl.Cl.Nc1c(NC(=O)CCCCNC(=O)[C@@H](N)C2CCCCC2)cncc1C(=O)O`: 1.96.

The target in another experiment is T1, T1R2/T1R3 (Homo sapiens) (UniProt Q8TE23+Q7RTX0). As to the kind of experiment: Agonist activity at human T1R2/T1R3 expressed in PEAKrapid cells assessed as effect on intracellular calcium influx measured for 120 secs by fluorescence based assay. The format is functional, cell-based.
Consider `CC(C)C[C@@H](CC(=O)Nc1cncc(C(=O)O)c1N)NC(=O)[C@@H](N)C1CCCCC1`, for which the outcome was inactive.
For `CC(C)CC(=O)NCc1ccc(-c2cncc(C(=O)O)c2N)o1`, the outcome was inactive.
`CC(=O)NCc1ccc(-c2cncc(C(=O)O)c2N)o1`: the outcome was inactive.
With `Cc1nc2ccccc2c(N)c1C(=O)O`, the outcome was inactive.
On the same count and under the same terms, the same measure for `CC(C)[C@@H](CCC(=O)Nc1cncc(C(=O)O)c1N)NC(=O)[C@@H](N)C1CCCCC1`: “inactive”; for `CC(C)[C@@H](CC(=O)Nc1cncc(C(=O)O)c1N)NC(=O)[C@@H](N)C1CCCCC1`: “inactive”.
On to `CC(C)CNC(=O)C(=O)NCc1ccc(-c2cncc(C(=O)O)c2N)o1`, for which the outcome was inactive.
Take `CC(C)(C)OC(=O)NCc1ccc(-c2cncc(C(=O)O)c2N)o1`: the outcome was inactive.
For `CC(C)C[C@H](N)C(=O)NCc1ccc(-c2cncc(C(=O)O)c2N)o1`, the result was inactive.
The same measure, in the same setting: to `CC(C)[C@H](N)C(=O)NCc1ccc(-c2cncc(C(=O)O)c2N)o1` belongs “inactive”.
Take `CC(C)C(=O)NCc1ccc(-c2cncc(C(=O)O)c2N)o1`: the outcome was inactive.
Turning to `Nc1c(NC(=O)CC[C@H](Cc2ccccc2)NC(=O)[C@@H](N)C2CCCCC2)cncc1C(=O)O`, the outcome was inactive.
On to `Cl.Cl.Nc1c(C(=O)O)cncc1-c1ccc(CNC(=O)[C@@H](N)C2CCCCC2)o1`, for which the result was inactive.
For `CC[C@H](C)[C@@H](CCC(=O)Nc1cncc(C(=O)O)c1N)NC(=O)[C@@H](N)C1CCCCC1`, the outcome was inactive.
With `CC(C)(CC(=O)Nc1cncc(C(=O)O)c1N)NC(=O)[C@@H](N)C1CCCCC1.Cl.Cl`, the result was inactive.
Consider `CC(C)CNC(=O)NCc1ccc(-c2cncc(C(=O)O)c2N)o1`, for which the result was inactive.
Same read-out and setting: the same measure for `Nc1c(NC(=O)CCCNC(=O)[C@@H](N)C2CCCCC2)cncc1C(=O)O`: “inactive”.
Same read-out and setting: the same measure for `Nc1c(NC(=O)CCCCCCNC(=O)[C@@H](N)C2CCCCC2)cncc1C(=O)O`: “inactive”; for `C[C@@H](CC(=O)Nc1cncc(C(=O)O)c1N)NC(=O)[C@@H](N)C1CCCCC1`: “inactive”; for `Nc1c(C(=O)O)cncc1-c1ccccc1`: “inactive”.
In the case of `Nc1c(C(=O)O)cncc1-c1ccco1`, the result was inactive.
As for `Nc1c(C(=O)O)cncc1-c1cccs1`, the result was inactive.
Same read-out and setting: to `CC[C@H](C)[C@H](N)C(=O)NCc1ccc(-c2cncc(C(=O)O)c2N)o1` belongs “inactive”; to `Cc1nc2cccc(OCC(C)(C)C(=O)NC(C)C)c2c(N)c1C(=O)O`, “inactive”.
Still for that read-out and setting: to `Cl.Cl.Nc1c(NC(=O)CCCCNC(=O)[C@@H](N)C2CCCCC2)cncc1C(=O)O` belongs “inactive”.

A further experiment has as its target T1, T1R2/T1R3 (Homo sapiens). As to the kind of experiment: Positive allosteric modulator activity at human T1R2/T1R3 expressed in PEAKrapid cells assessed as potentiation of sucrose-induced intracellular calcium influx by measuring sucrose EC50 at 30 uM measured for 120 secs by fluorescence based assay relative to FEMA4774. In kind it is functional, cell-based.
Take `CC(C)C[C@@H](CC(=O)Nc1cncc(C(=O)O)c1N)NC(=O)[C@@H](N)C1CCCCC1`: the Efficacy amounted to 38%.
In the case of `CC(C)CC(=O)NCc1ccc(-c2cncc(C(=O)O)c2N)o1`, the Efficacy turned out to be 42%.
Consider `CC(=O)NCc1ccc(-c2cncc(C(=O)O)c2N)o1`, for which the Efficacy came out at 33%.
Turning to `CC(C)[C@@H](CCC(=O)Nc1cncc(C(=O)O)c1N)NC(=O)[C@@H](N)C1CCCCC1`, the Efficacy was found to be 45%.
In the case of `CC(C)[C@@H](CC(=O)Nc1cncc(C(=O)O)c1N)NC(=O)[C@@H](N)C1CCCCC1`, the Efficacy came to 35%.
Still for that read-out and setting: the same measure for `CC(C)CNC(=O)C(=O)NCc1ccc(-c2cncc(C(=O)O)c2N)o1`: 43%.
For the compound `CC(C)(C)OC(=O)NCc1ccc(-c2cncc(C(=O)O)c2N)o1`, the Efficacy was found to be 41%.
Regarding `CC(C)C[C@H](N)C(=O)NCc1ccc(-c2cncc(C(=O)O)c2N)o1`, the Efficacy was 61%.
As to `CC(C)[C@H](N)C(=O)NCc1ccc(-c2cncc(C(=O)O)c2N)o1`, the Efficacy worked out at 52%.
Take `CC(C)C(=O)NCc1ccc(-c2cncc(C(=O)O)c2N)o1`: the Efficacy is 37%.
In the case of `Nc1c(NC(=O)CC[C@H](Cc2ccccc2)NC(=O)[C@@H](N)C2CCCCC2)cncc1C(=O)O`, the Efficacy stood at 55%.
With `Cl.Cl.Nc1c(C(=O)O)cncc1-c1ccc(CNC(=O)[C@@H](N)C2CCCCC2)o1`, the Efficacy was 72%.
Same read-out and setting: the same measure for `CC[C@H](C)[C@@H](CCC(=O)Nc1cncc(C(=O)O)c1N)NC(=O)[C@@H](N)C1CCCCC1`: 51%; for `CC(C)(CC(=O)Nc1cncc(C(=O)O)c1N)NC(=O)[C@@H](N)C1CCCCC1.Cl.Cl`: 67%.
Still for that read-out and setting: the same measure for `CC(C)CNC(=O)NCc1ccc(-c2cncc(C(=O)O)c2N)o1`: 48%; for `Nc1c(NC(=O)CCCNC(=O)[C@@H](N)C2CCCCC2)cncc1C(=O)O`: 37%.
Still for that read-out and setting: the same measure for `Nc1c(NC(=O)CCCCCCNC(=O)[C@@H](N)C2CCCCC2)cncc1C(=O)O`: 36%; for `C[C@@H](CC(=O)Nc1cncc(C(=O)O)c1N)NC(=O)[C@@H](N)C1CCCCC1`: 44%.
`CC[C@H](C)[C@H](N)C(=O)NCc1ccc(-c2cncc(C(=O)O)c2N)o1`: the Efficacy came out at 55%.
Same read-out and setting: the same measure for `Cl.Cl.Nc1c(NC(=O)CCCCNC(=O)[C@@H](N)C2CCCCC2)cncc1C(=O)O`: 45%.

In the next experiment the target is T1, T1R2/T1R3 (Homo sapiens). As to the kind of experiment: Positive allosteric modulator activity at human T1R2/T1R3 expressed in PEAKrapid cells assessed as potentiation of sucrose-induced intracellular calcium influx by measuring sucrose EC50 at 50 uM measured for 120 secs by fluorescence based assay relative to compound-2. The format is functional, cell-based.
On to `Nc1c(C(=O)O)cncc1-c1ccccc1`, for which the Efficacy was determined as 80%.
For the compound `Nc1c(C(=O)O)cncc1-c1ccco1`, the Efficacy was 83%.
Same read-out and setting: to `Nc1c(C(=O)O)cncc1-c1cccs1` belongs 85%.
